From patent publication US20240197733A1, “A GABA RECEPTOR MODULATOR FOR USE IN THE TREATMENT OF PAIN” (SANIONA A/S, priority 2021, published 2024)

Test system: electrocutaneous stimulation-induced facial pain rodent model
Test: ES-induced facial pain model, mechanical allodynia (Von Frey filaments), acute treatment
Type: in vivo, Sprague-Dawley rats
Conditions: for effect on mechanical allodynia (mechanical pain threshold, Von Frey) vs vehicle: acute
Excerpt: The electrocutaneous stimulation-induced facial pain rodent model is a reproducible orofacial pain model in which depilated cheek area of rats are repeatedly subjected to electrical stimulation. Repeated electrical stimulation at low intensities produces craniofacial pain that mimics the behavioral characteristics of TN such as development of mechanical and thermal allodynia at cheeks despite no visible edema, swelling or excessive injury and tissue damage.
Male wild type, Sprague-Dawley rats (Charles River Laboratories) born in-house at AfaSci Research Laboratory between May 24, 2020 to May 28, 2020. At approximately 3 months of age (approximately 350 g-450 g body weight) the rats were deemed suitable for the electrocutaneous stimulation-induced facial pain model. Prior to the experiment, the rats were maintained in group cages (3 rats per cage) in a controlled environment (temperature: 21.5±4.5° C./relative humidity: 35-55%) under a standard 12 h light/12 h dark lighting cycle (lights on at 06:00).
The required quantity of the compounds are weighed and dissolved in 100% DMSO in a volume amounting to 5% of the total volume while placed on a stirrer. The weight of the compounds refers to the free base weights. Once the solution becomes clear/transparent, the remaining volume of the vehicle is added (30% HPBCD prepared in MQ water) to final concentrations of 0.1, 0.3, and 1 mg/ml for Compound 1 and 3 mg/ml of Carbamazepine. The solutions are kept on a stirrer before- and during administration of the compounds to the animals.
The experimenter assessing the behavioral responses to drug administration is blinded to the drug treatment to the animals. Each treatment group is coded according the scheme below: • A. Vehicle (5% DMSO+30% HPBCD): 10 ml/kg • B. Compound 1: 1 mg/kg • C. Compound 1: 3 mg/kg • D. Compound 1: 10 mg/kg • F. Carbamazepine: 30 mg/kg
Second baseline measurement was carried out similarly to day 1. […] For each animal, the average of the two baseline nociceptive measurements were calculated within each pain modality (mechanical, heat- and cold pain), and used as baseline (“Baseline” point on figures).
Similarly, to day 1- and 2, all rats were subjected to acclimatization to test equipment and decapicone followed by measurements of ES-induced facial mechanical- heat- and cold allodynia (“0” time point on figures). […] Compound 1, vehicle and Carbamazepine was administered perorally in doses of 1, 3, and 10 mg/kg (Compound 1) or 30 mg/kg (carbamazepine) and drug effects on pain thresholds were evaluated 2- and 4 hours after drug administration by assessment of mechanical- (von Frey) and thermal hypersensitivity (heat- and cold stimulation respectively).
Decrease in ES-induced pain threshold was evaluated 22 hours following electrical stimulation of the depilated left cheek area (between the eye and ear ridge, this is a receptive field of trigeminal nerve) of each rat and was manifested as facial withdrawal following application of Von Frey filaments for mechanical allodynia and a heat lamp and acetone test for thermal hyperalgesia and allodynia respectively. Baseline pain behaviors were measured similarly to ES-induced facial pain measurements, except that rats were not subjected to ES stimulation.
Mechanical pain thresholds were assessed by measuring each rat's facial withdrawal threshold (g) in response to von Frey monofilaments (BioSeb). […]

`COc1ncc(-c2cccc(-n3cnc4cc(C(C)(C)O)cnc43)c2)c(OC)n1` [Compound 1, 2-(3-(3-(2,4-dimethoxypyrimidin-5-yl)phenyl)-3H-imidazo[4,5-b]pyridin-6-yl)propan-2-ol] was tested, and the “effect on mechanical allodynia (mechanical pain threshold, Von Frey) vs vehicle” value (shortened to “effect on mechanical allodynia … vs vehicle”) (3 mg/kg po, 4 hours post dosing, p<0.05 vs vehicle) was “significant analgesic effect”, the “effect on mechanical allodynia … vs vehicle” value (10 mg/kg po, 2 hrs, p<0.05 vs vehicle) was “reversed the mechanical allodynia” and the “effect on mechanical allodynia … vs vehicle” value (10 mg/kg po, 4 hours post dosing, p<0.0001 vs vehicle) was “significant analgesic effect”. The “analgesic effect on mechanical allodynia compared with carbamazepine 30 mg/kg p.o.” value (10 mg/kg po, post 4 hrs of treatment) was “comparable analgesic effect with carbamazepine”.
